Experimental data taken from patent US20250041294A1, “Synergistic compositions for use in the treatment of cancer” (Sartar Therapeutics Oy, priority 2021, published 2025).

Columns and labels:
Format in all cases: cell-based
[1] = test system: GIST882 cell line; experiment: High throughput drug sensitivity and resistance test (CellTiter-Glo, 72 hours); details: drug combined with BAY2666605 (40 nM) minus drug alone
Protocol: High throughput drug sensitivity and resistance test. […] In addition, same compounds were investigated together with anagrelide hydrochloride (100 nM) treatment in the PDE3A low expressing cell lines SA4 and GOT3, and with BAY2666605 (40 nM) in all PDE3A-positive cell lines GIST882, SA4 and GOT3. […] A cell viability was measured after 72 hours using CellTiter-Glo Cell Viability assay (Promega Inc.) and PHERAstar FS plate reader (BMG Labtech). The data were normalized to negative (0.01% dimethyl sulfoxide only) and positive (100 μmol/L benzethonium chloride) controls.
(§1) A four-parameter logistic dose-response curves were estimated by using the Marquardt-Levenberg algorithm and Breeze analysis platform. Drug responses to the test compounds were measured using the drug sensitivity score (DSS). Drug synergy partners, which were common in investigated cell lines were identified as following: DSS value of a single agent was subtracted from the DSS value of anagrelide-drug combination in single cell lines. […] The analysis was repeated by using BAY2666605 as a PDE3A modulator.

[2] = test system: SA4 cell line; experiment: as above; details: SA4; for SA4 cell line: DSS(combo (BAY2666605))-DSS(drug): drug combined with BAY2666605 (40 nM) minus drug alone; for SA4 cell line: DSS(combo (anagrelide))-DSS(drug): drug combined with anagrelide hydrochloride (100 nM) minus drug alone
Protocol: (§2) Cell lines. PDE3A-positive (GIST882, SA4, and GOT3) and PDE3A-negative cell lines (93TT449, 94T778, LPS141, MLS17656-92, MLS402-91, and SW872) were cultured in RPMI Medium 1640 (Gibco) with 5-, 10- or 20% fetal bovine serum (FBS, gibco), 100 U/mL of penicillin, 100 […] and 0.03 mg/mL of L-glutamine (Pen Strep Glut, Gibco, 10378-016) in a humidified, 5% CO2 atmosphere at 37° C.
(§3) High throughput drug sensitivity and resistance test. A sensitivity and resistance of cancer cell lines to 528 compounds were investigated in 9 cell lines (GIST882, SA4, GOT3, 93TT449, 94T778, LPS141, MLS17656-92, MLS402-91, and SW872). In addition, same compounds were investigated together with anagrelide hydrochloride (100 nM) treatment in the PDE3A low expressing cell lines SA4 and GOT3, and with BAY2666605 (40 nM) in all PDE3A-positive cell lines GIST882, SA4 and GOT3. The compounds were dissolved in 100% dimethyl sulfoxide or water and plated in 10-fold dilutions covering a 10,000-fold concentration range on flat clear bottom 384-well microplates as described in detail earlier (Pulkka O P, et al 2019). A cell viability was measured after 72 hours using CellTiter-Glo Cell Viability assay (Promega Inc.) and PHERAstar FS plate reader (BMG Labtech). The data were normalized to negative (0.01% dimethyl sulfoxide only) and positive (100 μmol/L benzethonium chloride) controls.
as §1

[3] = test system: GOT3 cell line; experiment: as above; details: GOT3; for GOT3 cell line: DSS(combo (BAY2666605))-DSS(drug): drug combined with BAY2666605 (40 nM) minus drug alone; for GOT3 cell line: DSS(combo (anagrelide))-DSS(drug): drug combined with anagrelide hydrochloride (100 nM) minus drug alone
Protocol: as §2, §3, §1

[4] = test system: GIST882, GOT3 and SA4 cell lines; experiment: High throughput drug sensitivity and resistance test, average over cell lines (BAY2666605 combination); details: for Average DSS (aDSS): BAY2666605 combination, average of GIST882, SA4 and GOT3, aDSS higher than 3.0 = synergy; for synergy in high-throughput screening (in words): with anagrelide (GOT3, SA4) or BAY2666605 (GIST882, GOT3, SA4)
Protocol: as §2, §3, §1

[5] = test system: GOT3 and SA4 cell lines; experiment: High throughput drug sensitivity and resistance test, average over cell lines (anagrelide combination); details: anagrelide combination, average of SA4 and GOT3; aDSS higher than 3.0 = synergy
Protocol: as §2, §3, §1

[6] = test system: GIST882 cell line; experiment: Drug combination testing with concentration matrices, SynergyFinder 2.0; details: combination with anagrelide, seven-concentration matrices
Protocol: (§4) Drug combination testing with anagrelide and 12 selected drugs was performed as described above but with selected drugs using drug concentration matrices covering seven different concentrations with 3 replicate sample of each combinations and in two replicate assays. […] The tool implements synergy scoring with four major reference models: HSA, Loewe, Bliss and ZIP models. The degree of a drug combination effect can be readily visualized as a synergy landscape map over the dose matrix and ZIP synergy score.

[7] = test system: SA4 cell line; experiment: as above; details: combination with anagrelide, seven-concentration matrices
Protocol: as §4

[8] = test system: GOT3 cell line; experiment: as above; details: combination with anagrelide, seven-concentration matrices
Protocol: as §4

Row | Compound | GIST882 cell line: DSS(combo (BAY2666605))-DSS(drug) [1] | SA4 cell line: DSS(combo (BAY2666605))-DSS(drug) [2] | SA4 cell line: DSS(combo (anagrelide))-DSS(drug) [2] | GOT3 cell line: DSS(combo (BAY2666605))-DSS(drug) [3] | GOT3 cell line: DSS(combo (anagrelide))-DSS(drug) [3] | Average DSS (aDSS) [4] | synergy in high-throughput screening (in words) [4] | Average DSS (aDSS) [5] | Average ZIP synergy score [6] | Average ZIP synergy score [7] | Average ZIP synergy score [8]
1 | CN(C)Cc1ccc(S(=O)(=O)n2ccc(/C=C/C(=O)NO)c2)cc1 [Resminostat, resminostat] | 3.1 | 11.7 | 13.5 | 3.1 | −0.1 | 6.0 | synergistic | 6.7 | – | – | –
2 | CN(C)Cc1c(C(=O)NCCOc2ccc(C(=O)NO)cc2)oc2ccccc12 [Abexinostat, abexinostat] | 4.2 | 12.3 | 10.9 | 2.1 | −1.1 | 6.2 | synergistic | 4.9 | – | – | –
3 | CO[C@H]1C[C@@H]2CC[C@@H](C)[C@@](O)(O2)C(=O)C(=O)N2CCCC[C@H]2C(=O)O[C@H]([C@H](C)C[C@@H]2CC[C@@H](O)[C@H](OC)C2)CC(=O)[C@H](C)/C=C(\C)[C@@H](O)[C@@H](OC)C(=O)[C@H](C)C[C@H](C)/C=C/C=C/C=C/1C [Sirolimus, sirolimus] | 3.4 | 7.9 | 9.5 | 2 | 3.4 | 4.4 | – | 6.45 | – | – | –
4 | Cc1[nH]c2ccccc2c1CCNCc1ccc(/C=C/C(=O)NO)cc1 [Panobinostat, panobinostat] | 6.1 | 6.7 | 11.7 | 8.2 | −0.5 | 7.0 | – | 5.6 | – | – | –
5 | CC(=O)c1cnc2ccc(-c3cc(Cl)c(O)c(Cl)c3)nc2c1N[C@H]1CC[C@H](CN(C)C)CC1 [OTS167] | 1.9 | 10.5 | 10.5 | 3.2 | 0.6 | 5.2 | synergistic | 5.55 | – | – | –
6 | CCN(CC)Cc1ccc2cc(COC(=O)Nc3ccc(C(=O)NO)cc3)ccc2c1 [Givinostat, givinostat] | 7.3 | 18.5 | 10 | 3 | −0.7 | 9.6 | synergistic | 4.65 | – | – | –
7 | Cc1ccc(NS(=O)(=O)c2cccc(C#N)c2)c2[nH]cc(C#N)c12 [E7820] | – | – | 18.2 | – | 7.5 | – | synergistic | 12.85 | 3 | 14.8 | 1.6
8 | O=C(/C=C/c1cccc(S(=O)(=O)Nc2ccccc2)c1)NO [Belinostat, belinostat] | −0.3 | 15.8 | 10 | 0.8 | 1.1 | 5.4 | synergistic | 5.55 | – | – | –
9 | CC(C)C[C@@H](C(=O)N[C@H](C(=O)OC1CCCC1)c1ccccc1)[C@H](O)C(=O)NO [Tosedostat, tosedostat] | 21 | 14.6 | 5.1 | 6.7 | 2.5 | 14.1 | synergistic | 3.8 | – | – | –
10 | CCN1C(=O)CNc2ncc(-c3ccc(-c4nc[nH]n4)nc3C)nc21 [CC-115] | – | – | 9.5 | – | 0.8 | – | synergistic | 5.15 | 3.1 | 4.1 | 1.6
11 | CCCCc1nc2cc(/C=C/C(=O)NO)ccc2n1CCN(CC)CC [Pracinostat, pracinostat] | 5.7 | 12 | 14.8 | 1.5 | −1.4 | 6.4 | synergistic | 6.7 | – | – | –
12 | CC1(C)CCC(CN2CCN(c3ccc(C(=O)NS(=O)(=O)c4ccc(NCC5CCOCC5)c([N+](=O)[O-])c4)c(Oc4cnc5[nH]ccc5c4)c3)CC2)=C(c2ccc(Cl)cc2)C1 [Venetoclax, venetoclax] | 12.2 | 29 | 6.2 | 0.2 | 0 | 13.8 | – | 3.1 | – | – | –
13 | COc1cc(C(=O)O)ccc1NC(=O)[C@@H]1N[C@@H](CC(C)(C)C)[C@](C#N)(c2ccc(Cl)cc2F)[C@H]1c1cccc(Cl)c1F [Idasanutlin, idasanutlin] | 0 | 19.6 | 8.5 | −0.5 | −1 | 6.4 | synergistic | 3.75 | – | – | –
